According to PubChem BioAssay (NCI):
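Test compounds were applied to cells in 96-well plates for 48 hours at 5 doses. Definition used: TGI = concentration required for complete inhibition of growth.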

How the values were obtained:
Assay in all cases: DTP human tumour cell line panel, 48 h
[1] = system: 786-0 renal
[2] = system: A498 renal
[3] = system: A549 NSCLC
[4] = system: ACHN renal
[5] = system: BT-549 breast
[6] = system: CAKI-1 renal
[7] = system: CCRF-CEM leukemia
[8] = system: COLO 205 colon
[9] = system: DU-145 prostate
[10] = system: EKVX NSCLC
[11] = system: HCC-2998 colon
[12] = system: HCT-116 colon
[13] = system: HCT-15 colon
[14] = system: HL-60(TB) leukemia
[15] = system: HOP-62 NSCLC
[16] = system: HOP-92 NSCLC
[17] = system: HS 578T breast
[18] = system: HT29 colon
[19] = system: IGROV1 ovarian
[20] = system: K-562 leukemia
[21] = system: KM12 colon
[22] = system: LOX IMVI melanoma
[23] = system: M14 melanoma
[24] = system: MALME-3M melanoma
[25] = system: MCF7 breast
[26] = system: MDA-MB-231 breast
[27] = system: MDA-MB-435
[28] = system: MDA-N
[29] = system: MOLT-4 leukemia
[30] = system: NCI-H226 lung
[31] = system: NCI-H23 lung
[32] = system: NCI-H460 lung
[33] = system: NCI-H522 lung
[34] = system: NCI/ADR-RES ovarian
[35] = system: OVCAR-3 ovarian
[36] = system: OVCAR-4 ovarian
[37] = system: OVCAR-5 ovarian
[38] = system: OVCAR-8 ovarian
[39] = system: PC-3 prostate
[40] = system: RPMI-8226 leukemia
[41] = system: RXF 393 renal
[42] = system: SF-268 CNS
[43] = system: SF-295 CNS
[44] = system: SF-539 CNS
[45] = system: SK-MEL-2 melanoma
[46] = system: SK-MEL-28 melanoma
[47] = system: SK-MEL-5 melanoma
[48] = system: SK-OV-3 ovarian
[49] = system: SN12C renal
[50] = system: SNB-19 CNS
[51] = system: SNB-75 CNS
[52] = system: SR leukemia
[53] = system: SW-620 colon
[54] = system: T-47D breast
[55] = system: TK-10 renal
[56] = system: U251 CNS
[57] = system: UACC-257 melanoma
[58] = system: UACC-62 melanoma
[59] = system: UO-31 renal

Structure (SMILES): CCCCCOC(=O)c1cc2cc(CCl)ccc2oc1=O
- TGI [1]: 18.2 µM
- TGI [2]: 5.39 µM
- TGI [3]: 41 µM
- TGI [4]: 8.42 µM
- TGI [5]: 40.6 µM
- TGI [6]: 6.3 µM
- TGI [7]: > 81.1 µM
- TGI [8]: 16.3 µM
- TGI [9]: 17.1 µM
- TGI [10]: 18.4 µM
- TGI [11]: 28.1 µM
- TGI [12]: 27.4 µM
- TGI [13]: 35.4 µM
- TGI [14]: 7.19 µM
- TGI [15]: 32.9 µM
- TGI [16]: 7.35 µM
- TGI [17]: > 42.8 µM
- TGI [18]: 35.4 µM
- TGI [19]: 27.8 µM
- TGI [20]: > 49.4 µM
- TGI [21]: 31.2 µM
- TGI [22]: 34.5 µM
- TGI [23]: 34.8 µM
- TGI [24]: 8.33 µM
- TGI [25]: > 56.9 µM
- TGI [26]: 37.5 µM
- TGI [27]: 14.9 µM
- TGI [28]: 20.9 µM
- TGI [29]: > 81.7 µM
- TGI [30]: 38 µM
- TGI [31]: 17.2 µM
- TGI [32]: 34.9 µM
- TGI [33]: 1.3 µM
- TGI [34]: 53.3 µM
- TGI [35]: 19.5 µM
- TGI [36]: 18.6 µM
- TGI [37]: 31.6 µM
- TGI [38]: > 63 µM
- TGI [39]: 15.2 µM
- TGI [40]: > 80.1 µM
- TGI [41]: 14.6 µM
- TGI [42]: 41.9 µM
- TGI [43]: 60.4 µM
- TGI [44]: > 93.3 µM
- TGI [45]: 2.08 µM
- TGI [46]: 60.2 µM
- TGI [47]: 13.4 µM
- TGI [48]: 45 µM
- TGI [49]: 28.1 µM
- TGI [50]: > 76.8 µM
- TGI [51]: 31.2 µM
- TGI [52]: 67.5 µM
- TGI [53]: 56.6 µM
- TGI [54]: 13.6 µM
- TGI [55]: 5.3 µM
- TGI [56]: 34.9 µM
- TGI [57]: 5.96 µM
- TGI [58]: 5.91 µM
- TGI [59]: 11.1 µM

Structure (SMILES): O=[N+]([O-])c1ccc2c(c1)nc(Cc1ccc(Cl)cc1)n2C[C@@H]1CCCN2CCCCC12 (stereo partly specified)
- TGI [1]: 24.5 µM
- TGI [2]: 21.7 µM
- TGI [3]: 42.1 µM
- TGI [4]: 29 µM
- TGI [5]: 27.1 µM
- TGI [6]: 31.7 µM
- TGI [7]: > 44.5 µM
- TGI [8]: 29.2 µM
- TGI [9]: 38.1 µM
- TGI [10]: > 41.2 µM
- TGI [11]: 18.8 µM
- TGI [12]: 23.3 µM
- TGI [13]: 37.8 µM
- TGI [14]: 66.1 µM
- TGI [15]: 48.9 µM
- TGI [16]: 25.4 µM
- TGI [17]: 43.3 µM
- TGI [18]: 28.8 µM
- TGI [19]: 26.7 µM
- TGI [20]: > 54.1 µM
- TGI [21]: 27.9 µM
- TGI [22]: 28.7 µM
- TGI [23]: 25.9 µM
- TGI [24]: 26.2 µM
- TGI [25]: 22.5 µM
- TGI [26]: 32.6 µM
- TGI [27]: 28.3 µM
- TGI [28]: 25.9 µM
- TGI [29]: > 44.8 µM
- TGI [30]: 38.3 µM
- TGI [31]: 34.3 µM
- TGI [32]: 31.2 µM
- TGI [33]: 27.4 µM
- TGI [34]: 30.2 µM
- TGI [35]: 30.8 µM
- TGI [36]: > 44 µM
- TGI [37]: 35.3 µM
- TGI [38]: 30.4 µM
- TGI [39]: > 51.7 µM
- TGI [40]: > 100 µM
- TGI [41]: 25.3 µM
- TGI [42]: 6.27 µM
- TGI [43]: 29.3 µM
- TGI [44]: 35.1 µM
- TGI [45]: 30.7 µM
- TGI [46]: 30.1 µM
- TGI [47]: 29.5 µM
- TGI [48]: 43.5 µM
- TGI [49]: 27.6 µM
- TGI [50]: 50.5 µM
- TGI [51]: 28.3 µM
- TGI [52]: > 100 µM
- TGI [53]: > 59 µM
- TGI [54]: 36.6 µM
- TGI [55]: 39.9 µM
- TGI [56]: 45.5 µM
- TGI [57]: 31.4 µM
- TGI [58]: 28.7 µM

Structure (SMILES): Cn1c2ccccc2n2c3ccccc3c(=O)c(C#N)c12
- TGI [1]: > 59.9 µM
- TGI [2]: > 75.8 µM
- TGI [3]: > 100 µM
- TGI [4]: 13.6 µM
- TGI [5]: > 100 µM
- TGI [6]: 35.2 µM
- TGI [7]: > 100 µM
- TGI [8]: > 100 µM
- TGI [9]: 65.8 µM
- TGI [10]: > 100 µM
- TGI [11]: > 100 µM
- TGI [12]: 33.9 µM
- TGI [13]: > 100 µM
- TGI [14]: > 100 µM
- TGI [15]: > 100 µM
- TGI [16]: > 76.7 µM
- TGI [17]: 66.7 µM
- TGI [18]: > 100 µM
- TGI [19]: > 87 µM
- TGI [20]: > 100 µM
- TGI [21]: > 100 µM
- TGI [22]: > 56.1 µM
- TGI [23]: > 100 µM
- TGI [24]: 49.9 µM
- TGI [25]: > 100 µM
- TGI [26]: 41.9 µM
- TGI [27]: > 100 µM
- TGI [28]: > 100 µM
- TGI [29]: 17.8 µM
- TGI [30]: 34.1 µM
- TGI [31]: > 59.8 µM
- TGI [32]: > 61.1 µM
- TGI [33]: 58.1 µM
- TGI [34]: > 60.1 µM
- TGI [35]: > 100 µM
- TGI [36]: > 100 µM
- TGI [37]: > 100 µM
- TGI [38]: > 44.5 µM
- TGI [39]: > 100 µM
- TGI [40]: > 26.7 µM
- TGI [41]: > 100 µM
- TGI [42]: > 100 µM
- TGI [43]: 55.1 µM
- TGI [44]: > 80.8 µM
- TGI [45]: > 100 µM
- TGI [46]: > 100 µM
- TGI [47]: 28.4 µM
- TGI [48]: > 100 µM
- TGI [49]: > 100 µM
- TGI [50]: > 100 µM
- TGI [51]: > 96.6 µM
- TGI [52]: 48.3 µM
- TGI [53]: > 100 µM
- TGI [54]: > 95.6 µM
- TGI [55]: > 100 µM
- TGI [56]: 55.5 µM
- TGI [57]: > 100 µM
- TGI [58]: > 58.3 µM
- TGI [59]: > 71.2 µM
